# Test results from patent US20190008870A1, “COMPOSITIONS AND METHODS FOR LIPID METABOLISM DISORDER” (JANSFAT BIOTECHNOLOGY CO., LTD., priority 2016, published 2019).
# Where “and” joins values, the source holds several entries; their conditions need not be identical. Equal values may be shown once.
# How the values were obtained:
# [1] = system: PPARγ; assay: PPARγ expression in HepG2 cells; assay type: cell-based; conditions: HepG2 cells; for PPARγ: Control 100
# Description: (§1) The HepG2 hepatoma cell line was purchased from the American Type Culture Collection (ATCC, Manassas, Va., U.S.A.). Cells were cultured in Dulbecco's Modified Eagle's Medium (DMEM). […] Then the targeted drugs solution was incubated with the cells for 24 hours, followed by protein extraction. […] HepG2 cells were treated with various concentrations of targeted drugs for 24 hours. Reactions were terminated by washing twice with cold PBS, and the cells were then harvested. Proteins in the whole-cell lysate were homogenized in an ice-cold lysis buffer and a protease inhibitor (Sigma-Aldrich, St. Louis, Mo., U.S.A.). The homogenate was centrifuged at 90,000×g for 15 minutes at 4° C., and supernatant was recovered as the total cellular protein. Cytosolic and membrane fractions of HepG2 cells were prepared using a CNM (Cytosol Nuclear Membrane) compartmental protein extraction kit (BioChain Institute Inc., Hayward, Calif., U.S.A.) according to the manufacturer's instructions. All of the fractionated protein solutions were stored at −80° C. until analysis. To measure the expression levels of proteins by drugs, the total cell protein was extracted after incubation with treatments for 24 hours and then Western blotting analysis was performed as described previously.
# [2] = system: ROCK II; assay: ROCK II expression in HepG2 cells; assay type: cell-based
# Description: as §1, with “-80°” for “−80°”
# [3] = system: HMG CoA reductase; assay: HMG CoA reductase expression in HepG2 cells (Western blotting); assay type: cell-based; conditions: for HMGR (%): CTL 100
# Description: The HepG2 hepatoma cell line was purchased from the American Type Culture Collection (ATCC, Manassas, Va., U.S.A.). Cells were cultured in Dulbecco's Modified Eagle's Medium (DMEM). The culture media was supplemented with 5% heat-inactivated FBS, penicillin (100 U/mL) and streptomycin (100 μg/mL). Cells were grown in a humidified atmosphere containing 5% CO2 at 37° C., in which the oxygen tension in the incubator was held at 140 mmHg (20% O2, v/v; normoxic conditions). […] Then the targeted drugs solution was incubated with the cells for 24 hours, followed by protein extraction. The targeted drugs were added to the […].
# HepG2 cells were treated with various concentrations of targeted drugs for 24 hours. Reactions were terminated by washing twice with cold PBS, and the cells were then harvested. Proteins in the whole-cell lysate were homogenized in an ice-cold lysis buffer and a protease inhibitor (Sigma-Aldrich, St. Louis, Mo., U.S.A.). The homogenate was centrifuged at 90,000×g for 15 minutes at 4° C., and supernatant was recovered as the total cellular protein. Cytosolic and membrane fractions of HepG2 cells were prepared using a CNM (Cytosol Nuclear Membrane) compartmental protein extraction kit (BioChain Institute Inc., Hayward, Calif., U.S.A.) according to the manufacturer's instructions. All of the fractionated protein solutions were stored at −80° C. until analysis. To measure the expression levels of proteins by drugs, the total cell protein was extracted after incubation with treatments for 24 hours and then Western blotting analysis was performed as described previously.
# [4] = Body weight and food intake of mice fed with HFD; assay type: in vivo; conditions: HFD mice, 5 mg/kg p.o.
# Description: (§2) In the experiment, C57BL/6J male mice (21-22 g), after fasting, were fed an HFD as a model of hyperlipidemia for 8 weeks. During the 2 month experiments, mice fasted for one night before the experiment was changed from a standard diet (STD) to an HFD and then the mice were randomly divided into 13 groups, including a protection group, 2 control and 10 treatment groups. Six mice were used in each group. […] Liver from the protection group supplemented with KMUP-1 HCl (1 mg/kg/day) were used to determine the HMG CoA reductase expression. Each group of mice had free access to drinking water from week 1 to week 14. Tap water was used to normalize mineral nutrition.
# Within 2 months, the 3 day food intake average for each animal was measured. The weight gain and plasma lipid levels of each group were determined and compared to the non-treatment control group. Mouse blood was collected during the daytime by cardiac puncture followed by centrifugation at 90×g (Benchtop Centrifuge, U.S.A.) to separate the serum, and frozen at −80° C., for biochemical analysis using a Hitachi Clinical Analyzer 7070 (Hitachi High-Technologies Co. Tokyo, Japan). Agents used in the assays were obtained from Merck & Co. (Kenilworth, N.J., U.S.A.). Triglyceride (TG), total cholesterol, HDL cholesterol and LDL cholesterol in mouse serum were measured by methods used in the clinic. To measure the hepatic Triglyceride, isolated liver were cut into small chips.
# [5] = system: mice fed with HFD; assay: Serum and liver lipid levels of mice fed with HFD; assay type: in vivo; conditions: for HDL chol. / LDL chol. / TG / Tot. chol.: Dose 2.5 mg/kg (Table 2)
# Description: as §2, with “During” for “In the experiment, C57BL/6J male mice (21-22 g), after fasting, were fed an HFD as a model of hyperlipidemia for 8 weeks. During”
# Within 2 months, the 3 day food intake average for each animal was measured. The weight gain and plasma lipid levels of each group were determined and compared to the non-treatment control group. […] Agents used in the assays were obtained from Merck & Co. (Kenilworth, N.J., U.S.A.). Triglyceride (TG), total cholesterol, HDL cholesterol and LDL cholesterol in mouse serum were measured by methods used in the clinic. To measure the hepatic Triglyceride, isolated liver were cut into small chips.
# [6] = system: ABCA1; assay: ABCA1 expression in HepG2 cells; assay type: cell-based; conditions: HepG2 cells, 10^−5 M, 24 hours; Control 100, Vehicle 110
# Description: as §1
# [7] = system: PDE-5A; assay: Expression of PDE-5A (Table 12); conditions: Control group 100 (%)
# [8] = system: ROCK II; assay: Expression of ROCK II (Table 12); conditions: Control group 100 (%)
# [9] = system: eNOS; assay: Expression of eNOS (Table 12); conditions: Control group 100 (%)
compound,measurement,setting,value
"CC(C)=CCC/C(C)=C/CC/C(C)=C/COP(=O)(O)OP(=O)(O)O [FPP, Farnesyl pyrophosphate, reference compound]",PPARγ,[1]; FPP (10 μM) alone,64%
same,ROCKII,"[2]; FPP (10 μM) alone, Control 100",118%
"CC(C)=CCC/C(C)=C/CC/C(C)=C/CC/C(C)=C/COP(=O)(O)OP(=O)(O)O [GGPP, Geranylgeranyl pyrophosphate, reference compound]",PPARγ,[1]; GGPP (10 μM) alone,50%
same,ROCKII,"[2]; GGPP (10 μM) alone, Control 100",150% and 220%
CC(O)(CCO)CC(=O)O (stereo not drawn) [Mevalonate],HMGR (%),[3]; Mevalonate 20 (μm),110%
same,HMGR (%),[3]; Mevalonate 40 (μm),95%
same,HMGR (%),[3]; Mevalonate 60 (μm),55%
same,HMGR (%),[3]; Mevalonate 80 (μm),48%
same,HMGR (%),[3]; Mevalonate 100 (μm),13%
same,HMG CoA expression,"[3]; Mevalonate (100 μM) alone, Control 100",20%
"Nc1nc2c(nc(Sc3ccc(Cl)cc3)n2[C@@H]2O[C@@H]3CO[P@@](=O)(S)O[C@H]3[C@H]2O)c(=O)[nH]1 [Rp-8-pCPT-cGMPS, 8-(p-chloro-phenylthio)guanosine-3,5-monophosphorothioate, reference compound]",ROCK II expression,"[2]; Rp-8-pCPT-cGMPS 10 μM alone, Control 100",320
"CCCc1nn(C)c2c(=O)nc(-c3cc(S(=O)(=O)N4CCN(C)CC4)ccc3OCC)[nH]c12 [SIDAF, 5-[2-ethoxy-5-(4-methylpiperazin-1-yl)-sulphonylphenyl]-1-methyl-3-propyl-4H-pyrazolo[4,3-d]pyrimidin-7-one, reference compound]",final BW (Body weight),[4],23.9 ± 0.9 g
same,HDL cholesterol,[5]; 5 mg/kg p.o.,103.2 ± 2.5 mg/dL
same,LDL cholesterol,[5]; 5 mg/kg p.o.,15.3 ± 1.3 mg/dL
same,TG in serum (Triacylglycerol),[5]; 5 mg/kg p.o.,82.7 ± 6.3 mg/dL
same,TG of liver,[5]; 5 mg/kg p.o.,34.5 ± 2.** mg/dl
same,Tot. chol. (total cholesterol),[5]; 5 mg/kg p.o.,133.7 ± 4.3 mg/dL
"C[C@@H](N)[C@H]1CC[C@H](C(=O)Nc2ccncc2)CC1 [Y27632, reference compound]",PPARγ expression,"[1]; 10^−5 M, 24 hours, Control 100, Vehicle 260",550
same,ABCA1 expression,[6],225
same,ROCK II expression,"[2]; 10^−5 M, 24 hours, Control 100, Vehicle 88",52
KMUP-1-DL-ascorbic acid [KMUP-1-VC],PDE-5A expression,[7],68.8 ± 5.3%
same,ROCK II expression,[8],40.8 ± 3.7%
same,HDL chol.,[5],97.3 ± 1.6 mg/dL
same,LDL chol.,[5],16.5 ± 0.9 mg/dL
same,TG,[5],78.2 ± 3.6 mg/dL
same,Tot. chol.,[5],129.4 ± 1.4 mg/dL
KMUP-1-sodium carboxyl methylcellulose [KMUP-1-CMC],PDE-5A expression,[7],58.7 ± 3.5%
same,ROCK II expression,[8],38.6 ± 2.7%
same,HDL chol.,[5],108.4 ± 1.3 mg/dL
same,LDL chol.,[5],16.4 ± 1.7 mg/dL
same,TG,[5],83.2 ± 5.3 mg/dL
same,Tot. chol.,[5],129.7 ± 1.6 mg/dL
same,eNOS expression,[9],152.14 ± 6.3%
